Patent US12084472B2 (Ardelyx, Inc., priority 2015, dated 2024)

Each molecule was assayed against T1, human TGR5 (Homo sapiens, UniProt Q8TDU6) (assay: Cell-based TGR5 assay (cAMP generation, HTRF)). Conditions: HEK293 cells stably transfected with human TGR5; cAMP by HTRF; 30 minutes at 37° C.; read-out: pEC50 Human TGR5 (converted).
T1 construct: expressed in transfected cells; host or cells: HEK293
T1 sequence (Q8TDU6 1-330): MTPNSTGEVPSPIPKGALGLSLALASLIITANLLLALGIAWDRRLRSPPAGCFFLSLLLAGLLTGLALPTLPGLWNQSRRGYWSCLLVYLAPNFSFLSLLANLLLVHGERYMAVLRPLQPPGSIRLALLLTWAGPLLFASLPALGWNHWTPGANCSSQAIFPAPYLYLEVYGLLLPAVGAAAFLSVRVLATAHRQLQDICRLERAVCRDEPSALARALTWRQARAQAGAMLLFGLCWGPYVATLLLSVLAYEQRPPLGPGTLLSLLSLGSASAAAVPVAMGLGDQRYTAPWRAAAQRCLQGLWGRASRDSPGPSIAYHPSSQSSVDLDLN
How it was run: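 Read-out was HTRF detection of cAMP, converted to concentration via a standard curve and fitted (3-parameter logistic) for pEC50 and maximal response. Agonist stimulation used HEK293 cells stably transfected with human TGR5, incubated 30 min at 37° C in IBMX-containing buffer at 0.05 nM to 10 μM compound.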

| Compound | EC50 [nM] |
| --- | --- |
| O=C(NCCN1CCN(S(=O)(=O)c2ccc(Cl)c(COC3(c4cnccc4-c4ccccc4OC4CC4)CC3)c2)CC1)NC[C@H](O)[C@@H](O)[C@H](O)[C@H](O)CO [Compound I-425, 1-(2-{4-[4-chloro-3-({1-[4-(2-cyclopropoxyphenyl)pyridin-3-yl]cyclopropoxy}methyl)benzenesulfonyl]piperazin-1-yl}ethyl)-3-[(2S,3R,4R,5R)-2,3,4,5,6-pentahydroxyhexyl]urea] | 126 to 1000 |
| CN(C[C@H](O)[C@@H](O)[C@H](O)[C@H](O)CO)C(=O)CCC[S+]([O-])c1ccc(Cl)c(CNC2(c3cnccc3-c3ccccc3OC3CC3)CC2)c1 (stereo partly drawn) [Compound I-647, 4-{4-chloro-3-[({1-[4-(2-cyclopropoxyphenyl)pyridin-3-yl]cyclopropyl}amino)methyl]benzenesulfinyl}-N-methyl-N-[(2S,3R,4R,5R)-2,3,4,5,6-pentahydroxyhexyl]butanamide] | 126 to 1000 |
| CC(CCCC(=O)N(CCN(C)C)C[C@H](O)[C@@H](O)[C@H](O)[C@H](O)CO)c1ccc(Cl)c(CNC2(c3cnccc3-c3ccccc3OC3CC3)CC2)c1 (stereo partly drawn) [Compound I-337, 5-{4-chloro-3-[({1-[4-(2-cyclopropoxyphenyl)pyridin-3-yl]cyclopropyl}amino)methyl]phenyl}-N-[^2-(dimethylamino)ethyl]-N-[(2S,3R,4R,5R)-2,3,4,5,6-pentahydroxyhexyl]hexanamide] | 126 to 1000 |
| Cc1ccc(SCCCCN(C(=O)[C@@H](O)[C@@H](O)[C@H](O)[C@@H](O)CO)C2CCOCC2)cc1CNC1(c2cnccc2-c2ccccc2OC2CC2)CC1 [Compound I-560, (2S,3S,4R,5S)-N-[4-({3-[({1-[4-(2-cyclopropoxyphenyl)pyridin-3-yl]cyclopropyl}amino)methyl]-4-methylphenyl}sulfanyl)butyl]-2,3,4,5,6-pentahydroxy-N-(oxan-4-yl)hexanamide] | 126 to 1000 |
| O=S(=O)(Nc1ccccc1)c1ccc(Cl)c(COC2(c3cnccc3-c3ccccc3OC3CC3)CC2)c1 [Compound I-771, 4-chloro-3-((1-(4-(2-cyclopropoxyphenyl)pyridin-3-yl)cyclopropoxy)methyl)-N-phenylbenzenesulfonamide] | < 100 |
| CN(C[C@H](O)[C@@H](O)[C@H](O)[C@H](O)CO)C(=O)c1ccc(CSc2ccc(Cl)c(CNC3(c4cnccc4-c4ccccc4OC4CC4)CC3)c2)cc1 [Compound I-680, 4-[({4-chloro-3-[({1-[4-(2-cyclopropoxyphenyl)pyridin-3-yl]cyclopropyl}amino)methyl]phenyl}sulfanyl)methyl]-N-methyl-N-[(2S,3R,4R,5R)-2,3,4,5,6-pentahydroxyhexyl]benzamide] | 126 to 1000 |
| O=C(COC1CN(S(=O)(=O)c2ccc(Cl)c(COC3(c4cnccc4-c4ccccc4OC4CC4)CC3)c2)C1)NC[C@H](O)[C@@H](O)[C@H](O)[C@H](O)CO [Compound I-454, 2-({1-[4-chloro-3-({1-[4-(2-cyclopropoxyphenyl)pyridin-3-yl]cyclopropoxy}methyl)benzenesulfonyl]azetidin-3-yl}oxy)-N-[(2S,3R,4R,5R)-2,3,4,5,6-pentahydroxyhexyl]acetamide] | 126 to 1000 |
| CC(CCCN(CCS(C)(=O)=O)C(=O)[C@@H](O)[C@@H](O)[C@H](O)[C@@H](O)CO)c1ccc(Cl)c(CNC2(c3cnccc3-c3ccccc3OC3CC3)CC2)c1 (stereo partly drawn) [Compound I-289, (2S,3S,4R,5S)-N-(4-{4-chloro-3-[({1-[4-(2-cyclopropoxyphenyl)pyridin-3-yl]cyclopropyl}amino)methyl]phenyl}pentyl)-2,3,4,5,6-pentahydroxy-N-(2-methanesulfonylethyl)hexanamide] | < 100 |
| CN(C)C(=O)c1ccc(Cl)c(COC2(c3cnccc3-c3ccccc3OC3CC3)CC2)c1 [Compound I-725, 4-Chloro-3-((1-(4-(2-cyclopropoxyphenyl)pyridin-3-yl)cyclopropoxy)methyl)-N,N-dimethylbenzamide] | 126 to 1000 |
| O=C(CCCSc1ccc(Cl)c(COC2(c3cnccc3-c3ccccc3OC3CC3)CC2)c1)N(Cc1ccccc1)C[C@H](O)[C@@H](O)[C@H](O)[C@H](O)CO [Compound I-667, N-benzyl-4-{[4-chloro-3-({1-[4-(2-cyclopropoxyphenyl)pyridin-3-yl]cyclopropoxy}methyl)phenyl]sulfanyl}-N-[(2S,3R,4R,5R)-2,3,4,5,6-pentahydroxyhexyl]butanamide] | 126 to 1000 |
| CCS(=O)(=O)CCN(CCCCCc1cc(Cl)c(COC2(c3cnccc3-c3ccccc3OC3CC3)CC2)cc1Cl)C(=O)[C@@H](O)[C@@H](O)[C@H](O)[C@@H](O)CO (stereo in doubt) [Compound I-227, (2S,3S,4R,5S)-N-{5-[2,5-dichloro-4-({1-[4-(2-cyclopropoxyphenyl)pyridin-3-yl]cyclopropoxy}methyl)phenyl]pentyl}-N-[2-(ethanesulfonyl)ethyl]-2,3,4,5,6-pentahydroxyhexanamide] | < 100 |
| Cc1ccc([C@@H](C)CCCC(=O)N(CCS(C)(=O)=O)C[C@H](O)[C@@H](O)[C@H](O)[C@H](O)CO)cc1CNC1(c2cnccc2-c2ccccc2OC2CC2)CC1 (single isomer, unassigned) [Compound I-367] | < 100 |
| CC(CCCc1cc(Cl)c(COC2(c3cnccc3-c3ccccc3OC3CC3)CC2)cc1Cl)C(=O)NC[C@H](O)[C@@H](O)[C@H](O)[C@H](O)CO (stereo partly drawn) [Compound I-139, 5-[2,5-dichloro-4-({1-[4-(2-cyclopropoxyphenyl)pyridin-3-yl]cyclopropoxy}methyl)phenyl]-2-methyl-N-[(2S,3R,4R,5R)-2,3,4,5,6-pentahydroxyhexyl]pentanamide] | < 100 |
| C[C@H](CCCC(=O)O)c1ccc(Cl)c(CNC2(c3cnccc3-c3ccccc3OC3CC3)CC2)c1 (single isomer, unassigned) [Compound I-247] | < 100 |
| Cc1ccc(C(C)CCCN(C(=O)[C@@H](O)[C@@H](O)[C@H](O)[C@@H](O)CO)C2CCS(=O)(=O)CC2)cc1CNC1(c2cnccc2-c2ccccc2OC2CC2)CC1 (stereo partly drawn) [Compound I-306, (2S,3S,4R,5S)-N-(4-{3-[({1-[4-(2-cyclopropoxyphenyl)pyridin-3-yl]cyclopropyl}amino)methyl]-4-methylphenyl}pentyl)-N-(1,1-dioxo-1λ^6-thian-4-yl)-2,3,4,5,6-pentahydroxyhexanamide] | < 100 |
| CN(C)C(=O)CN(C[C@H](O)[C@@H](O)[C@H](O)[C@H](O)CO)C(=O)CCCSc1ccc(Cl)c(COC2(c3cnccc3-c3ccccc3OC3CC3)CC2)c1 [Compound I-674, 4-{[4-chloro-3-({1-[4-(2-cyclopropoxyphenyl)pyridin-3-yl]cyclopropoxy}methyl)phenyl]sulfanyl}-N-[(dimethylcarbamoyl)methyl]-N-[(2S,3R,4R,5R)-2,3,4,5,6-pentahydroxyhexyl]butanamide] | 126 to 1000 |
| C[C@H](CCCCC(=O)N(C)C[C@H](O)[C@@H](O)[C@H](O)[C@H](O)CO)c1ccc(Cl)c(CNC2(c3cnccc3-c3ccccc3OC3CC3)CC2)c1 (single isomer, unassigned) [Compound I-329] | < 100 |
| CC(CCCCCNC(=O)[C@@H](O)[C@@H](O)[C@H](O)[C@@H](O)CO)c1ccc(Cl)c(CNC2(c3cnccc3-c3ccccc3OC3CC3)CC2)c1 (stereo partly drawn) [Compound I-280, (2S,3S,4R,5S)-N-(6-{4-chloro-3-[({1-[4-(2-cyclopropoxyphenyl)pyridin-3-yl]cyclopropyl}amino)methyl]phenyl}heptyl)-2,3,4,5,6-pentahydroxyhexanamide] | < 100 |
| O=C(CN1CCN(C(=O)CCCCc2cc(Cl)c(COC3(c4cnccc4-c4ccccc4OC4CC4)CC3)cc2Cl)CC1)NC[C@H](O)[C@@H](O)[C@H](O)[C@H](O)CO [Compound I-98, 2-(4-{5-[2,5-dichloro-4-({1-[4-(2-cyclopropoxyphenyl)pyridin-3-yl]cyclopropoxy}methyl)phenyl]pentanoyl}piperazin-1-yl)-N-[(2S,3R,4R,5R)-2,3,4,5,6-pentahydroxyhexyl]acetamide] | < 100 |
| Cc1cc(CNC2(c3cnccc3-c3ccccc3OC3CC3)CC2)c(Cl)cc1CCCCNC(=O)NC[C@H](O)[C@@H](O)[C@H](O)[C@H](O)CO (stereo in doubt) [Compound I-151, 1-(4-{5-chloro-4-[({1-[4-(2-cyclopropoxyphenyl)pyridin-3-yl]cyclopropyl}amino)methyl]-2-methylphenyl}butyl)-3-[(2S,3R,4R,5R)-2,3,4,5,6-pentahydroxyhexyl]urea] | 126 to 1000 |
| CC(CCCC(=O)N(CCS(C)(=O)=O)C[C@@H](O)[C@H](O)[C@@H](O)[C@@H](O)CO)c1ccc(Cl)c(CNC2(c3cnccc3-c3ccccc3OC3CC3)CC2)c1 (stereo partly drawn) [Compound I-346, 5-{4-chloro-3-[({1-[4-(2-cyclopropoxyphenyl)pyridin-3-yl]cyclopropyl}amino)methyl]phenyl}-N-(2-methanesulfonylethyl)-N-[(2R,3S,4S,5S)-2,3,4,5,6-pentahydroxyhexyl]hexanamide] | < 100 |
| Cc1ccc(SCCCN(C(=O)[C@@H](O)[C@@H](O)[C@H](O)[C@@H](O)CO)C2CCOCC2)cc1COC1(c2cnccc2-c2ccccc2OC2CC2)CC1 [Compound I-540, (2S,3S,4R,5S)-N-(3-{[3-({1-[4-(2-cyclopropoxyphenyl)pyridin-3-yl]cyclopropoxy}methyl)-4-methylphenyl]sulfanyl}propyl)-2,3,4,5,6-pentahydroxy-N-(oxan-4-yl)hexanamide] | 126 to 1000 |
